Measured values reported in patent publication US12285435B2, “Multivesicular liposome formulations of dexamethasone” (Pacira Pharmaceuticals, Inc., priority 2021, dated 2025).

Columns and labels:
[1] = Pharmacokinetic study of subcutaneous DSP-MVL formulations vs bolus DSP in rats (dexamethasone plasma levels); format: in vivo; conditions: rat
Experimental: Pharmacokinetic (PK) studies of the subcutaneous dosing of DSP discussed herein were performed on rats where bolus DSP was compared to various formulations of DSP-MVLs at doses between 1.0 to 3.5 mg/kg for rats and at 0.5 mg/kg for beagles. Formulations 3AA, 5AA, 8AA, 11AA, 14AA, 4B, and 1C were diluted to 19-20% PPV from the initial PPV of about 30-45% with a final DSP concentration of approximately about 3 mg/mL to 3.5 mg/mL. Formulations 47-49 were not diluted, and the DSP concentration in the final product was approximately 7 mg/mL. In addition, PK studies of Formulation 18AA were performed on beagles through subcutaneous and epidural dosing of DSP of about 0.5 mg/kg.
Plasma samples were collected at different times points (0, 24, 48, 72, 96, 120, 144 and 168 hours post dose) for analysis. Blood samples were collected via the right saphenous vein using a 19-gauge needle prick or cardiac puncture for the final time point, placed into chilled tubes containing the appropriate anticoagulant, inverted several times to mix, protected from light, and kept on ice until centrifugation. A summary of the data in FIG. 1-6 is set forth below in Tables 1-2. For the rat studies, Cumulative % AUC is expressed as a percentage of the total AUC obtained in animals administered with Free DSP. For the dog studies, Cumulative % AUC is expressed as a percentage of the total AUC for each dog.
FIG. 1 is a line chart illustrating the dose normalized dexamethasone plasma levels obtained in rats as a function of time, following administration of several DSP-MVL formulations varying in internal pH (Formulations 47-49) as compared to DSP in a saline solution (“Free DSP Solution” Formulation).
FIG. 4 is a line chart illustrating the dose normalized dexamethasone plasma level obtained in rats as a function of time, following administration of two DSP-MVL formulations with and without triolein (Formulations 5AA and 3AA).
FIG. 5 is a line chart illustrating the dose normalized dexamethasone plasma levels obtained in rats as a function of time, following administration of several DSP-MVL formulations varying in lipid component concentrations (Formulations 4B and 1C).

[2] = DSP, rapid absorption into the blood stream; cited from earlier work
[3] = percentage of the total AUC obtained in animals administered with Free DSP

With “dexamethasone sodium phosphate [Free DSP]” the Tmax [1] was 1 h, the AUC/dose ([1]; dose normalized) was 1182 ng·h/mL/mg/kg and the “Cumulative AUC % at 7 days” value [1, 3] was 100%. The “Cumulative AUC % at 14 days” value [1, 3] was 100% and the plasma half-life [2] was ~3.33 h.
